Source: patent publication US6737383B1, “Herbicidal oxadiazolidines” (priority 1999, dated 2004)

Columns and labels:
bedstraw = assay: Test B pre/postemergence bedstraw; type: in vivo, Galium aparine
In short: (§1)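 Response is a visual 0-to-10 score relative to untreated plants, where 0 means no effect and 10 means complete control, taken twelve to sixteen days after application. Treatments went onto soil at planting and onto foliage of 1- to 4-leaf plants, using a surfactant-containing non-phytotoxic solvent.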

blackgrass = assay: Test B pre/postemergence blackgrass; type: in vivo, Alopecurus myosuroides
In short: as §1

surinam grass = assay: Test B pre/postemergence surinam grass; type: in vivo, Brachiaria decumbens
In short: as §1

cocklebur = assay: Test B pre/postemergence cocklebur; type: in vivo, Xanthium strumarium
In short: as §1

crabgrass = assay: Test B pre/postemergence crabgrass; type: in vivo, Digitaria sanguinalis
In short: as §1

giant foxtail = assay: Test B pre/postemergence giant foxtail; type: in vivo, Setaria faberii
In short: as §1

morningglory = assay: Test B pre/postemergence morningglory; type: in vivo, Ipomoea hederacea
In short: as §1

pigweed = assay: Test B pre/postemergence pigweed; type: in vivo, Amaranthus retroflexus
In short: as §1

sugar beet = assay: Test B pre/postemergence sugar beet; type: in vivo, Beta vulgaris
In short: as §1

velvetleaf = assay: Test B pre/postemergence velvetleaf; type: in vivo, Abutilon theophrasti
In short: as §1

wheat = assay: Test B pre/postemergence wheat; type: in vivo, Triticum aestivum
In short: as §1

wild oat = assay: Test B pre/postemergence wild oat; type: in vivo, Avena fatua
In short: as §1

purple nutsedge = assay: Test B pre/postemergence purple nutsedge; type: in vivo, Cyperus rotundus
In short: as §1

rice = assay: Test B flood test rice; type: in vivo, Oryza sativa
In short: (§2)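 Each value is a visual injury score relative to controls, with 10 meaning complete control and 0 no effect. Evaluation took place twelve to sixteen days after the 2-leaf-stage plants were treated and kept in the greenhouse.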

duck salad = assay: Test B flood test duck salad; type: in vivo, Heteranthera limosa
In short: as §2

bamyardgrass = assay: Test B flood test barnyardgrass; type: in vivo, Echinochloa crus-galli
In short: as §2

[1] = Postemergence, Rate 125 g/ha, scale of 0 to 10 where 0 is no effect and 10 is complete control
[2] = Postemergence, Rate 1000 g/ha, scale 0 to 10 (0 no effect, 10 complete control)
[3] = Preemergence, Rate 125 g/ha, 0 is no effect, 10 is complete control
[4] = Preemergence, Rate 250 g/ha, scale 0 to 10, 0 is no effect, 10 is complete control
[5] = Preemergence, Rate 500 g/ha, scale 0 to 10 (0 no effect, 10 complete control)
[6] = Rate 250 g/ha, Postemergence, scale 0 to 10, 0 is no effect, 10 is complete control
[7] = Rate 500 g/ha, Postemergence, scale 0 to 10
[8] = Rate 1000 g/ha, Preemergence, scale 0 to 10 (0 no effect, 10 complete control)
[9] = Postemergence (flood test species), Rate 125 g/ha, scale of 0 to 10 where 0 is no effect and 10 is complete control
[10] = Rate 250 g/ha, Postemergence (flood test), scale 0 to 10, 0 is no effect, 10 is complete control
[11] = Rate 500 g/ha, listed under Postemergence (flood test species), scale 0 to 10

With `Cc1ccccc1-n1c(=O)on(C(=O)N(c2c(F)cccc2F)C(C)C)c1=O` [Compound 176] the “Bedstraw plant response rating” value (bedstraw; [1]) was 0, the “Bedstraw plant response rating” value (bedstraw; [2]) was 9 and the “Bedstraw plant response rating (0 to 10 scale)” value (bedstraw; [3]) was 0. The “Bedstraw plant response rating” value (bedstraw; [4]) was 0, the “Bedstraw plant response rating” value (bedstraw; [5]) was 0 and the “Plant response rating, Bedstraw” value (bedstraw; [6]) was 2. The “Bedstraw plant response rating” value (bedstraw; [7]) was 8, the “Plant response rating, Bedstraw” value (bedstraw; [8]) was 6 and the “Blackgrass plant response rating” value (blackgrass; [1]) was 0. For the same compound, the “Blackgrass plant response rating” value (blackgrass; [2]) was 7, the “Blackgrass plant response rating (0 to 10 scale)” value (blackgrass; [3]) was 0 and the “Blackgrass plant response rating” value (blackgrass; [4]) was 2. For the same compound, the “Blackgrass plant response rating” value (blackgrass; [5]) was 3, the “Plant response rating, Blackgrass” value (blackgrass; [6]) was 0 and the “Blackgrass plant response rating” value (blackgrass; [7]) was 3. For the same compound, the “Plant response rating, Blackgrass” value (blackgrass; [8]) was 7, the “B. signalgrass plant response rating” value (surinam grass; [1]) was 0 and the “B. signalgrass plant response rating” value (surinam grass; [2]) was 2. The “B. signalgrass plant response rating (0 to 10 scale)” value (surinam grass; [3]) was 0, the “B. signalgrass plant response rating” value (surinam grass; [4]) was 0 and the “B. signalgrass plant response rating” value (surinam grass; [5]) was 0. For the same compound, the “Plant response rating, B. signalgrass” value (surinam grass; [6]) was 0, the “B. signalgrass plant response rating” value (surinam grass; Rate 500 g/ha, Postemergence, scale 0 to 10, 0 no effect, 10 complete control) was 0 and the “Plant response rating, B. signalgrass” value (surinam grass; [8]) was 3. The “Cocklebur plant response rating” value (cocklebur; [1]) was 2, the “Cocklebur plant response rating” value (cocklebur; [2]) was 6 and the “Cocklebur plant response rating (0 to 10 scale)” value (cocklebur; [3]) was 0. For the same compound, the “Cocklebur plant response rating” value (cocklebur; [4]) was 0, the “Cocklebur plant response rating” value (cocklebur; [5]) was 0 and the “Plant response rating, Cocklebur” value (cocklebur; [6]) was 2. For the same compound, the “Cocklebur plant response rating” value (cocklebur; [7]) was 3, the “Plant response rating, Cocklebur” value (cocklebur; [8]) was 0 and the “Crabgrass plant response rating” value (crabgrass; [1]) was 0. The “Crabgrass plant response rating” value (crabgrass; [2]) was 9, the “Crabgrass plant response rating (0 to 10 scale)” value (crabgrass; [3]) was 8 and the “Crabgrass plant response rating” value (crabgrass; [4]) was 9. For the same compound, the “Crabgrass plant response rating” value (crabgrass; [5]) was 10, the “Plant response rating, Crabgrass” value (crabgrass; [6]) was 3 and the “Crabgrass plant response rating” value (crabgrass; [7]) was 6. The “Plant response rating, Crabgrass” value (crabgrass; [8]) was 10, the “Giant foxtail plant response rating” value (giant foxtail; [1]) was 0 and the “Giant foxtail plant response rating” value (giant foxtail; [2]) was 7. The “Giant foxtail plant response rating (0 to 10 scale)” value (giant foxtail; [3]) was 6, the “Giant foxtail plant response rating” value (giant foxtail; [4]) was 10 and the “Giant foxtail plant response rating” value (giant foxtail; [5]) was 10. For the same compound, the “Plant response rating, Giant foxtail” value (giant foxtail; [6]) was 0, the “Giant foxtail plant response rating” value (giant foxtail; [7]) was 6 and the “Plant response rating, Giant foxtail” value (giant foxtail; [8]) was 10. The “Morningglory plant response rating” value (morningglory; [1]) was 2, the “Morningglory plant response rating” value (morningglory; [2]) was 7 and the “Morningglory plant response rating (0 to 10 scale)” value (morningglory; [3]) was 0. For the same compound, the “Morningglory plant response rating” value (morningglory; [4]) was 0, the “Morningglory plant response rating” value (morningglory; [5]) was 0 and the “Plant response rating, Morningglory” value (morningglory; [6]) was 2. For the same compound, the “Morningglory plant response rating” value (morningglory; [7]) was 3, the “Plant response rating, Morningglory” value (morningglory; [8]) was 0 and the “Redroot pigweed plant response rating” value (pigweed; [1]) was 0. The “Redroot pigweed plant response rating” value (pigweed; [2]) was 1, the “Redroot pigweed plant response rating (0 to 10 scale)” value (pigweed; [3]) was 0 and the “Redroot pigweed plant response rating” value (pigweed; [4]) was 0. For the same compound, the “Redroot pigweed plant response rating” value (pigweed; [5]) was 0, the “Plant response rating, Redroot pigweed” value (pigweed; [6]) was 0 and the “Redroot pigweed plant response rating” value (pigweed; [7]) was 0. For the same compound, the “Plant response rating, Redroot pigweed” value (pigweed; [8]) was 0, the “Sugarbeets plant response rating” value (sugar beet; [1]) was 0 and the “Sugarbeets plant response rating” value (sugar beet; [2]) was 4. For the same compound, the “Sugarbeets plant response rating (0 to 10 scale)” value (sugar beet; [3]) was 0, the “Sugarbeets plant response rating” value (sugar beet; [4]) was 0 and the “Sugarbeets plant response rating” value (sugar beet; [5]) was 2. The “Plant response rating, Sugarbeets” value (sugar beet; [6]) was 0, the “Sugarbeets plant response rating” value (sugar beet; [7]) was 0 and the “Plant response rating, Sugarbeets” value (sugar beet; [8]) was 6. For the same compound, the “Velvetleaf plant response rating” value (velvetleaf; [2]) was 3, the “Velvetleaf plant response rating (0 to 10 scale)” value (velvetleaf; [3]) was 0 and the “Velvetleaf plant response rating” value (velvetleaf; [4]) was 0. For the same compound, the “Velvetleaf plant response rating” value (velvetleaf; [5]) was 2, the “Plant response rating, Velvetleaf” value (velvetleaf; [6]) was 2 and the “Velvetleaf plant response rating” value (velvetleaf; [7]) was 2. The “Plant response rating, Velvetleaf” value (velvetleaf; [8]) was 5, the “Wheat plant response rating” value (wheat; [2]) was 4 and the “Wheat plant response rating (0 to 10 scale)” value (wheat; [3]) was 0. For the same compound, the “Wheat plant response rating” value (wheat; [4]) was 0, the “Wheat plant response rating” value (wheat; [5]) was 0 and the “Plant response rating, Wheat” value (wheat; [6]) was 0. The “Wheat plant response rating” value (wheat; [7]) was 2, the “Plant response rating, Wheat” value (wheat; [8]) was 4 and the “Wild oats plant response rating” value (wild oat; [2]) was 4. For the same compound, the “Wild oats plant response rating (0 to 10 scale)” value (wild oat; [3]) was 0, the “Wild oats plant response rating” value (wild oat; [4]) was 3 and the “Wild oats plant response rating” value (wild oat; [5]) was 5. The “Plant response rating, Wild oats” value (wild oat; [6]) was 0, the “Wild oats plant response rating” value (wild oat; [7]) was 0 and the “Plant response rating, Wild oats” value (wild oat; [8]) was 5. The “Nutsedge plant response rating” value (purple nutsedge; [1]) was 0, the “Nutsedge plant response rating (0 to 10 scale)” value (purple nutsedge; [3]) was 0 and the “Nutsedge plant response rating” value (purple nutsedge; [4]) was 0. The “Nutsedge plant response rating” value (purple nutsedge; [5]) was 0, the “Plant response rating, Nutsedge” value (purple nutsedge; [6]) was 0 and the “Nutsedge plant response rating” value (purple nutsedge; [7]) was 0. For the same compound, the “Plant response rating, Nutsedge” value (purple nutsedge; [8]) was 10, the “Rice plant response rating” value (rice; [9]) was 0 and the “Rice plant response rating” value (rice; [2]) was 0. For the same compound, the “Plant response rating, Rice” value (rice; [10]) was 0, the “Rice plant response rating” value (rice; [11]) was 0 and the “Ducksalad plant response rating” value (duck salad; [9]) was 0. The “Ducksalad plant response rating” value (duck salad; [2]) was 0, the “Plant response rating, Ducksalad” value (duck salad; [10]) was 0 and the “Ducksalad plant response rating” value (duck salad; [11]) was 0. The “Barnyardgrass plant response rating” value (bamyardgrass; [9]) was 0, the “Barnyardgrass plant response rating” value (bamyardgrass; [2]) was 0 and the “Plant response rating, Barnyardgrass” value (bamyardgrass; [10]) was 0. The “Barnyardgrass plant response rating” value (bamyardgrass; [11]) was 0.
